Measurements from patent US6025471A, “Diazaspiro, azepino and azabicyclo therapeutic peptides” (priority 1998, dated 2000).
Where a SMILES comes first, the peptide text is derived from it. [ ]: non-standard residue; d: D form. dTrp(2-Me) = Cc1[nH]c2ccccc2c1C[C@@H](N)C(=O)O

Columns and labels:
[1] = tested on: growth hormone deficient rats; settings: cited from earlier work
human heart membranes = experiment: binding of peptides on human heart membranes (displacement of radiolabelled peptide); settings: FIG. 1
Excerpt: The binding abilities of certain peptides according to the invention compared to conventional peptides on human heart membranes are shown in FIG. 1. […]
Peptide A is in accordance with the invention, while peptides B-F are comparative. As shown in the figure, peptide A provided inhibition (i.e., displacement) of ^125 I-Tyr-Ala-His-D-Mrp-Ala-Trp-D-Phe-Lys-NH2 in a proportion of about 75%, whereas peptides B-F only provided about 5 to less than 35%. The greater binding affinities for the peptides of the invention illustrate that these peptides directly operate on specific receptors of heart tissue to achieve normalization of cardiac pressure.

Molecule | effect on worsening of cardiac dysfunction [1] | inhibition (i.e., displacement) of 125I-Tyr-Ala-His-D-Mrp-Ala-Trp-D-Phe-Lys-NH2 (human heart membranes)
Cc1[nH]c2ccccc2c1C[C@@H](NC(=O)[C@@H](N)Cc1cnc[nH]1)C(=O)N[C@@H](C)C(=O)N[C@@H](Cc1c[nH]c2ccccc12)C(=O)N[C@H](Cc1ccccc1)C(=O)N[C@@H](CCCCN)C(N)=O [Hexarelin, His-D-2-methyl-Trp-Ala-Trp-D-Phe-Lys-NH2] (H-H[dTrp(2-Me)]AW[dF]K-NH2) | reverse the worsening of cardiac dysfunction | 
[S,S-Spiro(Pro-Leu )]-D-Mrp-D-Trp-Phe-Lys-NH2 [peptide A] |  | about 75%
